{"source": "PubChem BioAssay AID624119", "about": "(National Center for Advancing Translational Sciences (NCATS), 2012)", "target": "Cytochrome P450 2D6 (Homo sapiens) (UniProt P10635)", "sequence (P10635 whole entry, looked up)": "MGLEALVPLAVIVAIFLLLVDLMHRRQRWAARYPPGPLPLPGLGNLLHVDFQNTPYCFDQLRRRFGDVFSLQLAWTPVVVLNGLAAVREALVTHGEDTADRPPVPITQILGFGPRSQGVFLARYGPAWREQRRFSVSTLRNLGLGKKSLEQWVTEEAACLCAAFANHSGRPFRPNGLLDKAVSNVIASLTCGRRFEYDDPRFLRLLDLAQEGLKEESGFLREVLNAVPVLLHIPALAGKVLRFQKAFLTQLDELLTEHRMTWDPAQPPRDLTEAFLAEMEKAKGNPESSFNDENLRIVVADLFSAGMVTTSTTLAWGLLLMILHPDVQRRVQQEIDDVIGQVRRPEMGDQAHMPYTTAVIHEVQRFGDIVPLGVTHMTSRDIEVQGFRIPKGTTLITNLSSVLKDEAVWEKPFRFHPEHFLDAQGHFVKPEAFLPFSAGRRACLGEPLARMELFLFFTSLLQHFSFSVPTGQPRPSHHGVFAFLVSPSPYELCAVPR", "assay": "qHTS Assay for Inhibitors of Bacillus subtilis Sfp phosphopantetheinyl transferase (PPTase): CYP 2D6", "conditions": "CYP2D6 inhibition, single concentration 3 uM; at 3 µM; active compounds read high", "text": "The covalent attachment of a phosphopantetheinyl (4'-PP) arm to a variety of synthases and other proteins is a key posttranslational protein modification. The 4'-PP is installed on the proteins post-translationally from coenzyme A (CoA) on a conserved serine residue by action of phosphopantetheinyl transferase (PPTase) enzymes. Phosphopantetheinylation is essential for synthase activity, and removal of the PPTase gene precludes natural product synthesis in microorganisms, or in the case of fatty acid biosynthesis, renders the organism unviable. PPTase enzymes belong to a distinct structural superfamily. Within bacteria, these enzymes are grouped into two classes based upon primary structure, the AcpS-Type and Sfp-Type PPTases.\nSfp-type PPTases, corresponding to an activator of surfactin production in Bacillus subtilis, are responsible for modifying type I polyketide and nonribosomal peptide synthases of prokaryotes. Sfp-type PPTases are responsible for the activation of a variety of pathogen-associated virulence factors. Among these compounds are toxins such as mycolactone from Mycobacterium ulcerans, siderophores such as vibriobactin from Vibrio cholerae or mycobactin from Mycobacterium tuberculosis, as well as the mycolic acids which form the waxy cell wall of Mycobacteria. The biosyntheses of these natural products are considered attractive targets for drug design. […]", "data": [{"smiles": "COc1ccnc(NC(=S)N2CCN(c3ncc(C(F)(F)F)cc3Cl)CC2)c1", "values": [{"measurement": "inhibition", "result": 25, "unit": "%"}]}]}
